Where two headings read alike, the source gives them in different places.
Assays:
[1] = test system: human PBMCs; test: Human PBMC TNF-α response to endotoxin (ELISA); format: cell-based; conditions: 0.1 μg/ml LPS 16 h, read-out: EC50 for the inhibition of the human PBMC TNF-α response to endotoxin, ave. ± S.D.
How it was run: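 PBMCs at 2e6 cells/ml in RPMI 1640 with 10% charcoal-dextran-treated FBS were pre-treated 1 h at 37 °C with compound (4-point 1:5 dilution from 10 μM). Stimulation with 0.1 μg/ml E. coli 0111:B4 LPS for 16 h; TNF-α measured by ELISA (A450) in 25-fold diluted supernatant.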

[2] = molecular target: T1, TAO2 (Homo sapiens, UniProt Q9UL54); test: Probe-based (AX9989) kinase profiling in Jurkat lysate: TAO2; format: binding; conditions: for inhibition at 10 µM: screening concentration 10 μM; for inhibition at 0.1 µM: screening concentration 0.1 μM
T1 construct: screened for activity against several kinases in Jurkat cells; endogenous in cells; host or cells: Jurkat cell lysate
T1 sequence (Q9UL54 1-1235): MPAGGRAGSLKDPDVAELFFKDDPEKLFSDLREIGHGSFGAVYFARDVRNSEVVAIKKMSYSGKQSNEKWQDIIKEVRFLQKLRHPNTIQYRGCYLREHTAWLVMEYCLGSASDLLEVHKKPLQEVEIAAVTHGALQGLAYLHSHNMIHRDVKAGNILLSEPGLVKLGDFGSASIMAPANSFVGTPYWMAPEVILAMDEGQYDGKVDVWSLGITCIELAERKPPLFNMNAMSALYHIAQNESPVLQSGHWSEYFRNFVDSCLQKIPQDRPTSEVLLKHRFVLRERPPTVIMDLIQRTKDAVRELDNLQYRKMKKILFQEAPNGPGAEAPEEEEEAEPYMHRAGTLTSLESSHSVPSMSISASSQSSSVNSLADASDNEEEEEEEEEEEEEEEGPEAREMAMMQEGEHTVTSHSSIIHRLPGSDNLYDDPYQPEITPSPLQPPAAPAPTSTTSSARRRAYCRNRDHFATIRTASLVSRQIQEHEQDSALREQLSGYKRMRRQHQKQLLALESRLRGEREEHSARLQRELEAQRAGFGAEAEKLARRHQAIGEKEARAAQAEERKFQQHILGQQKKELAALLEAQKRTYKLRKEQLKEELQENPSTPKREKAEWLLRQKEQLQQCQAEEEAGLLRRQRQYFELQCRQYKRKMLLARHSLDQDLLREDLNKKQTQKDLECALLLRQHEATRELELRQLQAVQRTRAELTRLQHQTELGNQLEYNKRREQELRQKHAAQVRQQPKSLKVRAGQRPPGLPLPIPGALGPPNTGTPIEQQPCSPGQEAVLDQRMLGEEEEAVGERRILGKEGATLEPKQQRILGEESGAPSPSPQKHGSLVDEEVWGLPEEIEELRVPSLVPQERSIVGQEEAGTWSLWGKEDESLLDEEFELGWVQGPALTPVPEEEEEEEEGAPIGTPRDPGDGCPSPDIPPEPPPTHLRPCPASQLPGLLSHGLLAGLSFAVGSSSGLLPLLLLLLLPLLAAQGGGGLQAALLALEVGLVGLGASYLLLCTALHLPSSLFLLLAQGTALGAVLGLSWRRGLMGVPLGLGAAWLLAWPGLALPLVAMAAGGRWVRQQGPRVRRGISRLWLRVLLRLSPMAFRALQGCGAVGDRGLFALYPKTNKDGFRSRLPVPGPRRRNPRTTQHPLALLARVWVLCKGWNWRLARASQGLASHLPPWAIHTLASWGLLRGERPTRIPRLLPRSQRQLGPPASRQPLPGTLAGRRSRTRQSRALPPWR
How it was run: (§1)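 Read-out: LC/MS intensity of desthiobiotinylated kinase active-site peptides, percent inhibition normalized to no-compound lysate. Jurkat lysate with 20 mM MnCl2 received compound for 15 min at room temperature, then 5 μM AX9989 probe; duplicates.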

[3] = molecular target: T2, ERK5 (Homo sapiens, UniProt Q13164); test: Probe-based (AX9989 acyl phosphate ATP probe) kinase profiling in Jurkat lysate: ERK5; format: binding; conditions: for IC50: Jurkat lysate; for inhibition at 10 µM: screening concentration 10 μM; for inhibition at 0.1 µM: screening concentration 0.1 μM
T2 construct: screened for activity against several kinases in Jurkat cells; endogenous in cells; host or cells: Jurkat cell lysate
How it was run: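 ERK5 IC50 values came from percent inhibition at the screening concentration, measured as loss of LC/MS signal of probe-labelled active-site peptides. Compound was added for 15 min at room temperature to Jurkat lysate (5 mg/ml, 20 mM MnCl2) before labelling with AX9989 ATP acyl phosphate probe at 5 μM.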

[4] = molecular target: T3, ACK (Homo sapiens, UniProt Q07912); test: Probe-based (AX9989) kinase profiling in Jurkat lysate: ACK; format: binding; conditions: for inhibition at 10 µM: screening concentration 10 μM; for inhibition at 0.1 µM: screening concentration 0.1 μM
T3 construct: screened for activity against several kinases in Jurkat cells; endogenous in cells; host or cells: Jurkat cell lysate
How it was run: as §1

[5] = test system: ABL or ARG; test: Probe-based (AX9989) kinase profiling in Jurkat lysate: ABL or ARG; format: binding
How it was run: as §1

[6] = read-out: TAO2 Inhibition % at indicated screening concentration
[7] = calculated from percent inhibition and screening concentration, AX9989 probe
[8] = read-out: ERK5 Inhibition % at indicated screening concentration
[9] = read-out: ACK Inhibition % at indicated screening concentration
[10] = screening concentration 1 μM, read-out: TAO2 Inhibition % at indicated screening concentration
[11] = screening concentration 1 μM, read-out: ERK5 Inhibition % at indicated screening concentration
[12] = screening concentration 1 μM, read-out: ACK Inhibition % at indicated screening concentration
[13] = read-out: Kinase inhibition % at indicated screening concentration: TAO2
[14] = calculated from percent inhibition of AX9989 labeling and the screening concentration
[15] = read-out: Kinase inhibition % at indicated screening concentration: ERK5
[16] = read-out: Kinase inhibition % at indicated screening concentration: ACK

T3 sequence (Q07912 whole entry): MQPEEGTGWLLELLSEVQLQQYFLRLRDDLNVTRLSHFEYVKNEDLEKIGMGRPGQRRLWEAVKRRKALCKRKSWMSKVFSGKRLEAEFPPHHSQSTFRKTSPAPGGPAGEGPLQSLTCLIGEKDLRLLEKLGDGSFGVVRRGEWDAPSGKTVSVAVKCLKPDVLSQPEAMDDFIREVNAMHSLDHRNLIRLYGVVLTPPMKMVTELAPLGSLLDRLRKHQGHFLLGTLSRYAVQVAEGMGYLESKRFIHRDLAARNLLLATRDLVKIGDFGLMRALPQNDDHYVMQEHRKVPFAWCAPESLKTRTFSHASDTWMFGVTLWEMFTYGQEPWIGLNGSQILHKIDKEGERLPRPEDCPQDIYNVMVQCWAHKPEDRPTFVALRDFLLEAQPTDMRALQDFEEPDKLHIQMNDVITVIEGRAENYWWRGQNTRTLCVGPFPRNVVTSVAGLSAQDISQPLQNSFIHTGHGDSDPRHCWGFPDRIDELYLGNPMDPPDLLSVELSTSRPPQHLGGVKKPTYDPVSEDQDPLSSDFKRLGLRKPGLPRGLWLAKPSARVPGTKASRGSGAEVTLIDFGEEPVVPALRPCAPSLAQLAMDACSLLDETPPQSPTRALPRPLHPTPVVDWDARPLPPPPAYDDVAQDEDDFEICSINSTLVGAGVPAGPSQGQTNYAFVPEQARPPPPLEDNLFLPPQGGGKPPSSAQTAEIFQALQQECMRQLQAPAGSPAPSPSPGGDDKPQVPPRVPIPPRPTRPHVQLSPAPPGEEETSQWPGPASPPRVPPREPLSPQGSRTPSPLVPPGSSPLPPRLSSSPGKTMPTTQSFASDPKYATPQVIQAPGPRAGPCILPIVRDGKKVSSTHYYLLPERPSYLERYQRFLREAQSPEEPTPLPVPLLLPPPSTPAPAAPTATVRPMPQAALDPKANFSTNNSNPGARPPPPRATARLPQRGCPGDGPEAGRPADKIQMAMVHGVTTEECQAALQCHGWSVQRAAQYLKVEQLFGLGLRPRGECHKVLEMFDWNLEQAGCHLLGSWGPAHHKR
T2 sequence (Q13164 whole entry): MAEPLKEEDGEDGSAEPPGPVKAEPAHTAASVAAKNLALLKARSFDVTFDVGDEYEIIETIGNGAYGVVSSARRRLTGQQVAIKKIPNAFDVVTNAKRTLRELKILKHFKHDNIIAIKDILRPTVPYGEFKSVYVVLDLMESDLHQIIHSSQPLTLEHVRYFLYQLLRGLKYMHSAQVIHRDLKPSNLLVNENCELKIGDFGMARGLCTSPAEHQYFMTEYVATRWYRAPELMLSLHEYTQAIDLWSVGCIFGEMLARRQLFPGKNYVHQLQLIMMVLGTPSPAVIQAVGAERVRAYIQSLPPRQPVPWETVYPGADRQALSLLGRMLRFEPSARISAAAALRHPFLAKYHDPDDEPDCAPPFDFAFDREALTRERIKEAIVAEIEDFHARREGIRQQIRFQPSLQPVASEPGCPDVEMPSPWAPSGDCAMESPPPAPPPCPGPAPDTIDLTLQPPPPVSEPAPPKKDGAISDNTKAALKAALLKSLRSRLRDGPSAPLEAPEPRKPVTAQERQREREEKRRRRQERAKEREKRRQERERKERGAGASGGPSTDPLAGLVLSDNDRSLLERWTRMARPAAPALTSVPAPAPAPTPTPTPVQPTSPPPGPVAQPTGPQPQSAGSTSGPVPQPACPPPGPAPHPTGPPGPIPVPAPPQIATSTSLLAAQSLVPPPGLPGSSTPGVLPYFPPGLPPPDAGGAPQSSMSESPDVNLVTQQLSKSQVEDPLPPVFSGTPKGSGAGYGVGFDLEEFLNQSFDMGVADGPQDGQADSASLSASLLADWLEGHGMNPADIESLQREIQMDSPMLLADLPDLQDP

| Compound | inhibition at 10 µM [2, 6] [%] | IC50 [3, 7] [nM] | inhibition at 10 µM [3, 8] [%] | inhibition at 10 µM [4, 9] [%] | ABL or ARG Inhibition % at indicated screening concentration ([5]; screening concentration 10 μM) | inhibition at 1 µM [2, 10] [%] | inhibition at 1 µM [3, 11] [%] | inhibition at 1 µM [4, 12] [%] | ABL or ARG Inhibition % at indicated screening concentration ([5]; screening concentration 1 μM) | inhibition at 0.1 µM [2, 13] [%] | IC50 [3, 14] [nM] | inhibition at 0.1 µM [3, 15] [%] | inhibition at 0.1 µM [4, 16] [%] | Kinase inhibition % at indicated screening concentration: ABL or ARG ([5]; screening concentration 0.1 μM) | EC50 [1] [nM] | other results |
| --- | --- | --- | --- | --- | --- | --- | --- | --- | --- | --- | --- | --- | --- | --- | --- | --- |
| Cc1cc(CN2CC[C@@H](N3CCCC3)C2)ccc1Nc1cc2c(cn1)N(C)C(=O)c1ccccc1N2C [Compound 49] | – | – | – | – | – | – | – | – | – | ≤ 35 | ≤ 50 | > 90 | ≤ 35 | E (E is ≦35%) | 1510 | – |
| CCOc1cc(C(=O)N[C@H]2CCCOC2)ccc1Nc1cc2c(cn1)N(C)C(=O)c1ccccc1N2C [Compound 100] | – | – | – | – | – | – | – | – | – | – | > 500 | – | – | – | 1020 | inhibition at 1 µM ([2]; screening concentration 1.0 μM, read-out: Kinase inhibition % at indicated screening concentration: TAO2): ≤ 35%; inhibition at 1 µM ([3]; screening concentration 1.0 μM, read-out: Kinase inhibition % at indicated screening concentration: ERK5): 50 to 75%; inhibition at 1 µM ([4]; screening concentration 1.0 μM, read-out: Kinase inhibition % at indicated screening concentration: ACK): ≤ 35%; Kinase inhibition % at indicated screening concentration: ABL or ARG ([5]; screening concentration 1.0 μM): E (E is ≦35%) |
| CCOc1cc(C(=O)N2CC[C@@H](N(CC)CC)C2)ccc1Nc1cc2c(cn1)N(C)C(=O)c1occc1N2C [Compound 67] | – | – | – | – | – | – | – | – | – | ≤ 35 | ≤ 50 | > 90 | ≤ 35 | E (E is ≦35%) | 920 ± 180 | – |
| CCOc1cc(C(=O)NCCN(C(C)C)C(C)C)ccc1Nc1cc2c(cn1)N(C)C(=O)c1ccccc1N2C [Compound 55] | – | – | – | – | – | – | – | – | – | ≤ 35 | ≤ 50 | 50 to 75 | ≤ 35 | E (E is ≦35%) | 1160 ± 450 | – |

Further lines, with some results ahead:

| inhibition at 10 µM [2, 6] [%] | IC50 [3, 7] [nM] | inhibition at 10 µM [3, 8] [%] | inhibition at 10 µM [4, 9] [%] | ABL or ARG Inhibition % at indicated screening concentration ([5]; screening concentration 10 μM) | inhibition at 1 µM [2, 10] [%] | inhibition at 1 µM [3, 11] [%] | inhibition at 1 µM [4, 12] [%] | ABL or ARG Inhibition % at indicated screening concentration ([5]; screening concentration 1 μM) | inhibition at 0.1 µM [2, 13] [%] | IC50 [3, 14] [nM] | inhibition at 0.1 µM [3, 15] [%] | inhibition at 0.1 µM [4, 16] [%] | Kinase inhibition % at indicated screening concentration: ABL or ARG ([5]; screening concentration 0.1 μM) | Compound | EC50 [1] [nM] | other results |
| --- | --- | --- | --- | --- | --- | --- | --- | --- | --- | --- | --- | --- | --- | --- | --- | --- |
| 50 to 75 | > 500 | > 90 | ≤ 35 | E (E is ≦35%) | – | – | – | – | – | – | – | – | – | CN1C(=O)c2c(F)ccc(F)c2Oc2cc(N[C@H]3CC[C@H](O)CC3)ncc21 [Compound T97] | 430 ± 450 | – |
| – | ≤ 50 | – | – | – | ≤ 35 | > 90 | ≤ 35 | E (E is ≦35%) | – | – | – | – | – | CCOc1cc(C(=O)N2CCC(N3CCCN(C)CC3)CC2)ccc1Nc1cc2c(cn1)N(C)C(=O)c1ccccc1N2C [Compound T31] | 490 | – |
| ≤ 35 | 101 to 500 | > 90 | ≤ 35 | E (E is ≦35%) | – | – | – | – | – | – | – | – | – | CCOc1cc(C(=O)N2CCN(C3CCN(C)CC3)CC2)ccc1Nc1cc2c(cn1)N(C)C(=O)c1c(F)cccc1O2 [Compound T102] | 290 ± 280 | – |
| ≤ 35 | 101 to 500 | > 90 | ≤ 35 | E (E is ≦35%) | – | – | – | – | – | – | – | – | – | C[C@@H]1C[C@H](Nc2cc3c(cn2)N(C)C(=O)c2ccccc2N3C)CC[C@H]1O [Compound T115] | 780 ± 690 | – |
| – | 50 to 100 | – | – | – | ≤ 35 | > 90 | ≤ 35 | E (E is ≦35%) | – | – | – | – | – | CCOc1cc(C(=O)N(C)[C@H]2CC[C@H](O)CC2)ccc1Nc1cc2c(cn1)N(C)C(=O)c1ccccc1N2C [Compound T64] | 620 | – |
| – | ≤ 50 | – | – | – | ≤ 35 | > 90 | ≤ 35 | E (E is ≦35%) | – | – | – | – | – | CCOc1cc(C(=O)N2CCN(CCN3CCOCC3)CC2)ccc1Nc1cc2c(cn1)N(C)C(=O)c1ccccc1N2C [Compound T15] | 800 ± 270 | – |

From patent US20170008888A1 (KYORIN PHARMACEUTICAL CO., LTD., priority 2014, published 2017)
